Reference: paper PMC10591299, “Targeting SHP2 with an Active Site Inhibitor Blocks Signaling and Breast Cancer Cell Phenotypes” (ACS Bio & Med Chem Au, 2023)

Key:
MDA-MB468 cells = experiment: Cell growth in 2D culture, MDA-MB468; format: cell-based; conditions: MDA-MB468, 500 nM, 72 h; vehicle treated cells grew to confluency
Experimental: Since SHP2 is essential for the growth and transformation of BC cells,[8],[9],[11] we determined the effect of SHP2 inhibition with CNBCA in 2D and 3D culture systems. For the effect on cell growth, BC cells (BT474 and MDA-MB468) were seeded in 2D culture and treated with a single concentration of CNBCA (500 nM), the concentration that provided a 50% inhibition of SHP2 mediated signaling in BT474 cells. Images were collected at the start and every 24 h for a total of 72 h (3 days). […] For effect on anchorage independent growth, approximately 10^6 cells were seeded in soft agar as described previously,[24] and treated with CNBCA at 500 nM concentration for 10 days with refeeding and adjustment of compound concentration. […] Finally, the effect of CNBCA on cancer stem cell properties was determined by the suspension assay, in which only cells with stem-like properties only can grow and form mammospheres.[7],[24],[36] Approximately 10^6 cells were seeded in nonadherent 6 cm plates and treated with CNBCA (500 nM) for 10 days with complementation of media and drug concentration.

FL-SHP2 = molecular target: T1, FL-SHP2 (Homo sapiens, UniProt Q06124); experiment: PTPase assay on FLAG-tagged full-length SHP2 immunoprecipitated from MDA-MB468 cells; format: biochemical; conditions: FLAG-tagged FL-SHP2 on beads from MDA-MB468 cells, 20 μM DiFMUP
T1 construct: whether CNBCA is also effective against full-length SHP2 (FL-SHP2); expressed in transfected cells; host or cells: MDA-MB468
T1 sequence (Q06124 1-593): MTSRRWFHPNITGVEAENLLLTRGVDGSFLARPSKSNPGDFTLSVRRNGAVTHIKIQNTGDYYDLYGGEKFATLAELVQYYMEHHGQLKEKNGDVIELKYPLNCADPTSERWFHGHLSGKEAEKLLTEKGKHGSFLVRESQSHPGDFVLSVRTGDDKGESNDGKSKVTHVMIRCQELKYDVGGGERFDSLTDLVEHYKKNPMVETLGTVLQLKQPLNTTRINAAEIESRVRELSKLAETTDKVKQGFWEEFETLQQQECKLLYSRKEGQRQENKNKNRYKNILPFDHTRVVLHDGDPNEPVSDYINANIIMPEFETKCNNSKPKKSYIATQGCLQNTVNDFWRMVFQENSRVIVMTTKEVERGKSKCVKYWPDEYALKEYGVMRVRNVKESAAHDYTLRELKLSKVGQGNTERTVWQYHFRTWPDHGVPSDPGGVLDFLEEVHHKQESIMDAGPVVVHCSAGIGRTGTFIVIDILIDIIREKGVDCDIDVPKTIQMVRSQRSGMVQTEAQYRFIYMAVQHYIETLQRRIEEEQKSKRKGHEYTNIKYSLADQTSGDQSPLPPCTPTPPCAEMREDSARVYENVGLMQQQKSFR
Excerpt: To confirm efficiency of the expression, we conducted IB analysis of total protein extracts (TPE) prepared from the noncancerous MEF cells (mouse embryo fibroblasts), the MDA-MB468 BC cells that overexpress EGFR, and the BT474 BC cells that overexpress HER2. […] We also performed HER2 and EGFR IB analyses, which confirmed overexpression of these RTKs in the BC cells, but not in the MEF cells. […] Next, FL-SHP2 was immunoprecipitated (IP) with anti-FLAG antibody from the TPEs of the three cells (Figure 3F) and used for determining the activation state while still bound to protein-A sepharose beads, as described in the materials and methods. […] We thus used SHP2 expressed in BC cells to test the inhibitory effect of CNBCA on FL-SHP2. […]
For determining the inhibitory effect of CNBCA on FL-SHP2, a FLAG-tagged protein ectopically expressed in the EGFR overexpressing MDA-MB468 cells[8],[15] was used as an enzyme. […] After 20 min of incubation at 37 °C, 100 μL of the supernatant from each sample was transferred to 96-well plates, and fluorescence intensity measure as above, using the Synergy 4 plate reader. The resulting data was then analyzed with the Graphpad Prism software to draw the graph and determine the IC50 value.

IC50 (FL-SHP2): 0.615 µM
SMILES: CCCCCCCCCOc1ccc(-c2ccc(C(=O)O)cc2)cc1CCCC(=O)O [CNBCA, 3′-(3-carboxypropyl)-4′-(nonyloxy)-[1,1′-biphenyl]-4-carboxylic acid]
cell growth in 2D culture (MDA-MB468 cells): half-confluent
